IC50 data for 15 compounds are collected here from patent publication US20260258035A1, “FIVE-MEMBERED AND SIX-MEMBERED NITROGEN-CONTAINING COMPOUND, AND INTERMEDIATE, PREPARATION METHOD AND USE THEREOF” (HANGZHOU SYNRX THERAPEUTICS BIOMEDICAL TECHNOLOGY CO., LTD., priority 2022, published 2026).

SMILES strings stand for the structures. Where two headings read alike, the source gives them in different places.

One assay has as its system HCC1806. In words: Cell viability assay (CellTiter-Glo). The note with it: HCC1806, 7 days, CellTiter-Glo, read-out: IC50 (nM) in cell viability assay. Type of assay: cell-based, Human. (In general: ATP-based viability assays read luminescence as a measure of living cells.)
The next assay deals with PARG (Homo sapiens, UniProt Q86W56). As to the kind of experiment: Biochemical assay (PARG, TFMU-ADPr substrate).
For assay [1], the system named is Human breast squamous carcinoma cells HCC1806. As to the kind of experiment: Cell function assay (In-Cell Western, PAR/pADPr after MMS). Type of assay: cell-based. The note with it: read-out: IC50 (nM) in cell function assay. The essentials: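 HCC1806 cells adhered 24 h at 37 °C, 5% CO2, then were pretreated 1 h with compound (30000 nM down to 1 nM, plus 0 nM) or DMSO. MMS was then added at 0.5 mM final for 1 h before In-Cell Western detection of PAR/pADPr.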

Where [2] appears, read: 4 nM PARG, 66.2 uM TFMU-ADPr, 3 min at room temperature.
Where [3] appears, read: HCC1806, In-Cell Western, MMS treatment.
Setting [4] is: HCC1806, compound 1 h then 0.5 mM MMS 1 h, PAR/pADPr antibody, In-Cell Western.

Chain of PARG (Q86W56 whole entry): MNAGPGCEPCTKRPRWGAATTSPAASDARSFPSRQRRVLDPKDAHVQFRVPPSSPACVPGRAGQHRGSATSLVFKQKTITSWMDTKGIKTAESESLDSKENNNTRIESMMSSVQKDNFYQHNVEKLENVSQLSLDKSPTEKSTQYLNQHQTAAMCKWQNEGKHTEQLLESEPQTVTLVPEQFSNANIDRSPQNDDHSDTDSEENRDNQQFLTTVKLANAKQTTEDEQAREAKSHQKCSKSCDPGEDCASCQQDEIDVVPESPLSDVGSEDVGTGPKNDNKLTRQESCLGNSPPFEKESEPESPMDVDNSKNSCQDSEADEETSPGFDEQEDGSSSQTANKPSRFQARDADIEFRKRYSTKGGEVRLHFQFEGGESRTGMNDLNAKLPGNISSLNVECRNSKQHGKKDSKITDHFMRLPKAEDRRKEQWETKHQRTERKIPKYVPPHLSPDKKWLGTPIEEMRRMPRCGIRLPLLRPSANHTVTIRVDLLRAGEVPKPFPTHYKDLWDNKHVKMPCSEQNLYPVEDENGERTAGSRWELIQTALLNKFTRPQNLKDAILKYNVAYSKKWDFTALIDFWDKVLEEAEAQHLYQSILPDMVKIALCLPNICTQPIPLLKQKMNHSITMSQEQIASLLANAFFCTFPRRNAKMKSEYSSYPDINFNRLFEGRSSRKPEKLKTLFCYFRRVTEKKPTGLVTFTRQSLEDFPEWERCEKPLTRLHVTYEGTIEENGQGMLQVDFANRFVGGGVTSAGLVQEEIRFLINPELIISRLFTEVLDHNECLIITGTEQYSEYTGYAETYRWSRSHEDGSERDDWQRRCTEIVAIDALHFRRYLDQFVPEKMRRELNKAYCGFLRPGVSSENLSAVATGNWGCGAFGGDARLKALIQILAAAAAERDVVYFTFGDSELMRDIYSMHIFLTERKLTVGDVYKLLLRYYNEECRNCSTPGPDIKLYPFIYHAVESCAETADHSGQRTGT

Broadly, the IC50 is the concentration at which inhibition is half-maximal. `CC1(O)CCN(c2cc(S(=O)(=O)NC3(C#N)CC3)cn3c(-c4nnc(C(F)F)s4)ncc23)CC1` [Example 65, N-(1-cyanocyclopropyl)-3-(5-(difluoromethyl)-1,3,4-thiadiazol-2-yl)-8-(4-hydroxy-4-methylpiperidin-1-yl)imidazo[1,5-a]pyridine-6-sulfonamide]: the IC50 in the assay on HCC1806 is 6000 nM; with HCC1806 (Homo sapiens, HCC1806, 168 h) it was 5000 to 30000 nM; on PARG (setting [2]), under 100 nM; at PARG (PARG, TFMU-ADPr substrate), 7.02 nM; in assay [1] (setting [3]), 122 nM; in assay [1] (setting [4]) it was 100 to 500 nM.
Turning to `O=S(=O)(NC1(CF)CC1)c1cc(N2CCC(CO)CC2)c2nnc(-c3nnc(C(F)F)s3)n2c1` [Example 108, 3-(5-(difluoromethyl)-1,3,4-thiadiazol-2-yl)-N-(1-(fluoromethyl)cyclopropyl)-8-(4-(hydroxymethyl)piperidin-1-yl)-[1,2,4]triazolo[4,3-a]pyridine-6-sulfonamide], the 50% inhibitory concentration (IC50) with HCC1806 was 520 nM; with HCC1806 (Homo sapiens, HCC1806, 168 h), 500 to 5000 nM; against PARG (setting [2]), under 100 nM; at PARG (PARG, TFMU-ADPr substrate), 1.5 nM; in assay [1] (setting [3]), 22.6 nM; in assay [1] (setting [4]) it was under 100 nM.
On to `CC(C)C(=O)N1CCN(c2cc(S(=O)(=O)NC3(C)COC3)cn3c(-c4nnc(C(F)F)s4)ncc23)CC1` [Example 43, 3-(5-(difluoromethyl)-1,3,4-thiadiazol-2-yl)-8-(4-isobutyrylpiperazin-1-yl)-N-(3-methyloxetan-3-yl)imidazo[1,5-a]pyridine-6-sulfonamide], for which the IC50 is 283 nM in the assay with HCC1806; under 500 nM with HCC1806 (Homo sapiens, HCC1806, 168 h); under 100 nM on PARG (setting [2]); 0.96 nM against PARG (PARG, TFMU-ADPr substrate); 9.32 nM in assay [1] (setting [3]); under 100 nM in assay [1] (setting [4]).
As to `CC(C)C(=O)N1CCN(c2cc(S(=O)(=O)NC3(CO)CC3)cn3c(-c4nnc(C(F)F)s4)ncc23)CC1` [Example 37, 3-(5-(difluoromethyl)-1,3,4-thiadiazol-2-yl)-N-(1-(hydroxymethyl)cyclopropyl)-8-(4-isobutyrylpiperazin-1-yl)imidazo[1,5-a]pyridine-6-sulfonamide], the half-maximal inhibitory concentration (IC50) was 2670 nM with HCC1806 (Homo sapiens, HCC1806, 168 h); under 100 nM against PARG (setting [2]); 4.7 nM on PARG (PARG, TFMU-ADPr substrate); 166 nM in assay [1] (setting [3]).
Turning to `C[C@@H]1CN(c2cc(S(=O)(=O)NC3(C)CC3)cn3c(-c4nnc(C(F)F)s4)nnc23)CCN1C(=O)C1(C)CC1` [Example 117, (R)-3-(5-(difluoromethyl)-1,3,4-thiadiazol-2-yl)-8-(3-methyl-4-(1-methylcyclopropane-1-carbonyl)piperazin-1-yl)-N-(1-methylcyclopropyl)-[1,2,4]triazolo[4,3-a]pyridine-6-sulfonamide], the IC50 was 256 nM in the assay on HCC1806; under 500 nM in the assay on HCC1806 (Homo sapiens, HCC1806, 168 h); under 100 nM against PARG (setting [2]); 8.71 nM against PARG (PARG, TFMU-ADPr substrate); 1.49 nM in assay [1] (setting [3]); under 100 nM in assay [1] (setting [4]).
With `CC1(NS(=O)(=O)c2cc(N3CCC(CO)CC3)c3nnc(-c4nnc(C(F)F)s4)n3c2)CC1` [Example 114, 3-(5-(difluoromethyl)-1,3,4-thiadiazol-2-yl)-8-(4-(hydroxymethyl)piperidin-1-yl)-N-(1-methylcyclopropyl)-[1,2,4]triazolo[4,3-a]pyridine-6-sulfonamide], the half-inhibitory concentration (IC50) in the assay on HCC1806 is 462 nM; in the assay with HCC1806 (Homo sapiens, HCC1806, 168 h) it was 500 to 5000 nM; at PARG (setting [2]), under 100 nM; on PARG (PARG, TFMU-ADPr substrate), 1.57 nM; in assay [1] (setting [3]), 17.5 nM; in assay [1] (setting [4]) it was under 100 nM.
On to `CC(C)C(=O)N1CC2(CC=C(c3nc(-c4nnc(C(F)F)s4)n4cc(S(=O)(=O)NC5(C#N)CC5)ccc34)C2)C1` [Example 24, N-(1-cyanocyclopropyl)-3-(5-(difluoromethyl)-1,3,4-thiadiazol-2-yl)-1-(2-isobutyryl-2-azaspiro[3.4]oct-6-en-6-yl)imidazo[1,5-a]pyridine-6-sulfonamide], for which the half-inhibitory concentration (IC50) is 500 nM in the assay with HCC1806; under 500 nM in the assay with HCC1806 (Homo sapiens, HCC1806, 168 h); under 100 nM against PARG (setting [2]); 2.46 nM on PARG (PARG, TFMU-ADPr substrate); 52.6 nM in assay [1] (setting [3]); under 100 nM in assay [1] (setting [4]).
As for `CC(C)C(=O)N1CCN(c2cc(S(=O)(=O)NC3CC3)cn3c(-c4nnc(C(F)F)s4)ncc23)CC1` [Example 69, N-cyclopropyl-3-(5-(difluoromethyl)-1,3,4-thiadiazol-2-yl)-8-(4-isobutyrylpiperazin-1-yl)imidazo[1,5-a]pyridine-6-sulfonamide], the concentration for half-maximal inhibition (IC50) in the assay on HCC1806 was 432 nM; in the assay with HCC1806 (Homo sapiens, HCC1806, 168 h), under 500 nM; at PARG (setting [2]), under 100 nM; on PARG (PARG, TFMU-ADPr substrate), 20 nM; in assay [1] (setting [3]) it was 9.05 nM; in assay [1] (setting [4]) it was under 100 nM.
On to `COC1(C)CCN(c2cc(S(=O)(=O)NC3(CF)CC3)cn3c(-c4nnc(C(F)F)s4)nnc23)CC1` [Example 111, 3-(5-(difluoromethyl)-1,3,4-thiadiazol-2-yl)-N-(1-(fluoromethyl)cyclopropyl)-8-(4-methoxy-4-methylpiperidin-1-yl)-[1,2,4]triazolo[4,3-a]pyridine-6-sulfonamide], for which the 50% inhibitory concentration (IC50) is 916 nM with HCC1806; 500 to 5000 nM in the assay on HCC1806 (Homo sapiens, HCC1806, 168 h); under 100 nM against PARG (setting [2]); 0.37 nM against PARG (PARG, TFMU-ADPr substrate); 72.9 nM in assay [1] (setting [3]); under 100 nM in assay [1] (setting [4]).
In the case of `C[C@@H]1CN(c2cc(S(=O)(=O)NC3(C#N)CC3)cn3c(-c4nnc(C(F)F)s4)ncc23)CCN1C(=O)C1CC1` [Example 75, (R)-N-(1-cyanocyclopropyl)-8-(4-(cyclopropanecarbonyl)-3-methylpiperazin-1-yl)-3-(5-(difluoromethyl)-1,3,4-thiadiazol-2-yl)imidazo[1,5-a]pyridine-6-sulfonamide], the IC50 in the assay with HCC1806 was 370 nM; in the assay with HCC1806 (Homo sapiens, HCC1806, 168 h) it was under 500 nM; at PARG (setting [2]) it was under 100 nM; on PARG (PARG, TFMU-ADPr substrate), 13.2 nM; in assay [1] (setting [3]), 3.78 nM; in assay [1] (setting [4]) it was under 100 nM.
Turning to `[2H]c1nc(-c2nnc(C(F)F)s2)n2cc(S(=O)(=O)NC3(C#N)CC3)cc(N3CCN(C(=O)C4(C)CC4)[C@H](C)C3)c12` [Example 156, (R)—N-(1-cyanocyclopropyl)-3-(5-(difluoromethyl)-1,3,4-thiadiazol-2-yl)-8-(3-methyl-4-(1-methylcyclopropane-1-carbonyl)piperazin-1-yl)imidazo[1,5-a]pyridine-6-sulfonamide-1-d], the 50% inhibitory concentration (IC50) in the assay on HCC1806 is 280 nM; in the assay on HCC1806 (Homo sapiens, HCC1806, 168 h) it was under 500 nM; at PARG (setting [2]) it was under 100 nM; at PARG (PARG, TFMU-ADPr substrate) it was 6.92 nM; in assay [1] (setting [3]), 12 nM; in assay [1] (setting [4]), under 100 nM.
Take `[2H]c1nc(-c2nnc(C(F)F)s2)n2cc(S(=O)(=O)NC3(CF)COC3)cc(N3CCN(C(=O)C(C)C)CC3)c12` [Example 153, 3-(5-(difluoromethyl)-1,3,4-thiadiazol-2-yl)-N-(3-(fluoromethyl)oxetan-3-yl)-8-(4-isobutyrylpiperazin-1-yl)imidazo[1,5-a]pyridine-6-sulfonamide-1-d]: the IC50 with HCC1806 is 352 nM; in the assay on HCC1806 (Homo sapiens, HCC1806, 168 h), 500 to 5000 nM; against PARG (setting [2]), under 100 nM; against PARG (PARG, TFMU-ADPr substrate), 5.34 nM; in assay [1] (setting [3]), 2.99 nM; in assay [1] (setting [4]), under 100 nM.
Consider `CC(C)C(=O)N1CCN(c2cc(S(=O)(=O)NC34CC(C3)C4)cn3c(-c4nnc(C(F)F)s4)ncc23)CC1` [Example 54, N-(bicyclo[1.1.1]pentan-1-yl)-3-(5-(difluoromethyl)-1,3,4-thiadiazol-2-yl)-8-(4-isobutyrylpiperazin-1-yl)imidazo[1,5-a]pyridine-6-sulfonamide], for which the 50% inhibitory concentration (IC50) with HCC1806 was 9380 nM; with HCC1806 (Homo sapiens, HCC1806, 168 h) it was 5000 to 30000 nM; on PARG (setting [2]) it was under 100 nM; at PARG (PARG, TFMU-ADPr substrate), 11.4 nM; in assay [1] (setting [3]), 26.5 nM; in assay [1] (setting [4]) it was under 100 nM.
Consider `CC(C)C(=O)N1CCN(c2cc(S(=O)(=O)NC3(C)CCOC3)cn3c(-c4nnc(C(F)F)s4)ncc23)CC1` (centres unmarked) [Example 58, 3-(5-(difluoromethyl)-1,3,4-thiadiazol-2-yl)-8-(4-isobutyrylpiperazin-1-yl)-N-(3-methyltetrahydrofuran-3-yl)imidazo[1,5-a]pyridine-6-sulfonamide], for which the concentration for half-maximal inhibition (IC50) was over 30000 nM in the assay on HCC1806 (Homo sapiens, HCC1806, 168 h); under 100 nM against PARG (setting [2]); 25.1 nM against PARG (PARG, TFMU-ADPr substrate); 2870 nM in assay [1] (setting [3]); over 1000 nM in assay [1] (setting [4]).
Taken in the same sequence, the figures for `[2H]C1([2H])CCC1([2H])NS(=O)(=O)c1cc(N2CCN(C(=O)C(C)C)CC2)c2cnc(-c3nnc(C(F)F)s3)n2c1` (centres unmarked) [Example 57, N-(cyclobutyl-1,2,2-d3)-3-(5-(difluoromethyl)-1,3,4-thiadiazol-2-yl)-8-(4-isobutyrylpiperazin-1-yl)imidazo[1,5-a]pyridine-6-sulfonamide] were over 30000 nM, under 100 nM, 21.2 nM, 1110 nM and over 1000 nM.
